Experiment [1] concerns NCI-H929 human multiple myeloma tumor cell line. Nature of the experiment: NCI-H929 cell viability assay (CellTiter-Glo, 24 hours). The conditions noted are these: Homo sapiens, NCI-H929, 24 h, read-out: H929 Viability IC50 (μM, 10% FBS), 10% FBS, 24 hours of compound treatment. In kind it is cell-based.
The target in the next experiment is GST-MCL-1 (Homo sapiens, UniProt Q07820). Nature of the experiment: TR-FRET MCL-1 binding assay (competition with probe F-Bak). In outline:
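Test compounds, 11 three-fold dilutions from 25 μM final, incubated 2 hours at room temperature with GST-MCL-1, F-Bak probe and Tb-anti-GST antibody. TR-FRET read at 340/35 nm excitation with 520/525 and 495/510 nm emission. Run without human serum and with 10% HS.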

The subject of experiment [2] is AMO-1 human multiple myeloma tumor cell line. Nature of the experiment: AMO-1 cell viability assay (CellTiter-Glo, 24 hours). It is filed as cell-based. The following applies: Homo sapiens, AMO1, 24 h, read-out: AMO-1 Viability IC50 (μM, 10% FBS), 10% FBS, 24 hours of compound treatment.
The mark [3] stands for this setting: MCL-1 Binding Ki (nM, 10% HS), in the presence of 10% HS (human serum).
[4] abbreviates: without HS, read-out: MCL-1 Binding Ki.

From patent US20250313572A1, “MACROCYCLIC MCL-1 INHIBITORS AND METHODS OF USE” (AbbVie Inc., priority 2017, published 2025) come the findings set out here.

Like-named read-outs stand apart in the source and are kept apart here.

Sequence of GST-MCL-1 (Q07820 whole entry): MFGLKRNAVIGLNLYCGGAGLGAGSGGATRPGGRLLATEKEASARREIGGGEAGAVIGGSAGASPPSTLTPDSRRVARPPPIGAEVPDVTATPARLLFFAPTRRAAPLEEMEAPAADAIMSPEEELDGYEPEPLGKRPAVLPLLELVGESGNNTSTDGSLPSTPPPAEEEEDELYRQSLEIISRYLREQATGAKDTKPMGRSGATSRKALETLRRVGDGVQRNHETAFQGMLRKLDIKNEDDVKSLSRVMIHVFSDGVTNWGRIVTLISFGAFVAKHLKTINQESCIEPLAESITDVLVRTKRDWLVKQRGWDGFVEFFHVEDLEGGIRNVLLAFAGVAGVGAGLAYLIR

For `Cc1c(Cl)c2c(Cl)c(C)c1-c1c(-c3ccc(F)cc3)sc3ncnc(c13)O[C@@H](C(=O)O)Cc1cc(ccc1OCc1ccnc(N3C[C@H]4C[C@@H](C3)C4(F)F)n1)OC[C@@H](CN1CCN(C)CC1)O2` [Example 172, (7R,16R)-19,23-dichloro-10-({2-[(1R,5S)-6,6-difluoro-3-azabicyclo[3.1.1]heptan-3-yl]pyrimidin-4-yl}methoxy)-1-(4-fluorophenyl)-20,22-dimethyl-16-[(4-methylpiperazin-1-yl)methyl]-7,8,15,16-tetrahydro-18,21-etheno-13,9-(metheno)-6,14,17-trioxa-2-thia-3,5-diazacyclononadeca[1,2,3-cd]indene-7-carboxylic Acid], the half-maximal inhibitory concentration (IC50) in experiment [1] is 0.00524 µM; in experiment [2] it was 0.000966 µM. Also, the Ki at GST-MCL-1 (setting [3]) came out at 2.74 nM; on GST-MCL-1 (setting [4]) it was 0.141 nM.

Turning to `COCCOCCOCCC1CCN(c2nccc(COc3ccc4cc3C[C@H](C(=O)O)Oc3ncnc5sc(-c6ccc(F)cc6)c(c35)-c3c(C)c(Cl)c(c(Cl)c3C)O[C@H](CN3CCN(C)CC3)CO4)n2)CC1` [Example 52, (7R,16R)-19,23-dichloro-1-(4-fluorophenyl)-10-{[2-(4-{2-[2-(2-methoxyethoxy)ethoxy]ethyl}piperidin-1-yl)pyrimidin-4-yl]methoxy}-20,22-dimethyl-16-[(4-methylpiperazin-1-yl)methyl]-7,8,15,6-tetrahydro-18,21-etheno-9,13-(metheno)-6,14,17-trioxa-2-thia-3,5-diazacyclononadeca[1,2,3-cd]indene-7-carboxylic Acid], the IC50 stood at 0.00269 µM in experiment [1] and 0.000648 µM in experiment [2]. For the same compound, the Ki turned out to be 3.31 nM at GST-MCL-1 (setting [3]) and 0.348 nM on GST-MCL-1 (setting [4]).

For `COc1ccccc1-c1nccc(COc2ccc3cc2C[C@H](C(=O)O)Oc2ncnc4sc(-c5ccc(F)cc5)c(c24)-c2ccc(c(Cl)c2C)O[C@H](CN2CCN(C[C@H]4O[C@H](OC)[C@@H](OC)[C@@H](OC)[C@@H]4OC)CC2)CO3)n1` [Example 6, methyl 6-(4-{[(7R,16R,21S)-7-carboxy-19-chloro-1-(4-fluorophenyl)-10-{[2-(2-methoxyphenyl)pyrimidin-4-yl]methoxy}-20-methyl-7,8,15,16-tetrahydro-18,21-etheno-13,9-(metheno)-6,14,17-trioxa-2-thia-3,5-diazacyclononadeca[1,2,3-cd]inden-16-yl]methyl}piperazin-1-yl)-6-deoxy-2,3,4-tri-O-methyl-a-D-mannopyranoside], the IC50 turned out to be 0.024 µM in experiment [1] and 0.03 µM in experiment [2]. For the same compound, the Ki at GST-MCL-1 (setting [3]) was 0.221 nM; on GST-MCL-1 (setting [4]), 0.014 nM.

As for `Cc1c2ccc(c1Cl)O[C@H](CN1CCN(C)CC1)COc1ccc(OCc3ccnc(N4CCC5(CC4)CC(F)(F)CO5)n3)c(c1)C[C@H](C(=O)O)Oc1ncnc3sc(-c4ccc(F)cc4)c-2c13` [Example 78, (7R,16R)-19-chloro-10-{[2-(3,3-difluoro-1-oxa-8-azaspiro[4.5]decan-8-yl)pyrimidin-4-yl]methoxy}-1-(4-fluorophenyl)-20-methyl-16-[(4-methylpiperazin-1-yl)methyl]-7,8,15,16-tetrahydro-18,21-etheno-13,9-(metheno)-6,14,17-trioxa-2-thia-3,5-diazacyclononadeca[1,2,3-cd]indene-7-carboxylic Acid], the IC50 in experiment [1] was found to be 0.00552 µM; in experiment [2], 0.000935 µM. Also, the Ki on GST-MCL-1 (setting [3]) is 16 nM; at GST-MCL-1 (setting [4]), 2.28 nM.

In the case of `Cc1c(Cl)c2c(Cl)c(C)c1-c1c(-c3ccc(F)cc3)sc3ncnc(c13)O[C@@H](C(=O)O)Cc1cc(ccc1OCc1ccnc(C3CCS(=O)(=O)CC3)n1)OC[C@@H](CN1CCN(C)CC1)O2` [Example 40, (7R,16R)-19,23-dichloro-10-{[2-(1,1-dioxo-1λ^6-thian-4-yl)pyrimidin-4-yl]methoxy}-1-(4-fluorophenyl)-20,22-dimethyl-16-[(4-methylpiperazin-1-yl)methyl]-7,8,15,16-tetrahydro-18,21-etheno-13,9-(metheno)-6,14,17-trioxa-2-thia-3,5-diazacyclononadeca[1,2,3-cd]indene-7-carboxylic Acid], the IC50 in experiment [1] is 0.00474 µM; in experiment [2] it was 0.003 µM. For the same compound, the results for the Ki on GST-MCL-1 (setting [3]) and on GST-MCL-1 (setting [4]) were 0.085 nM and 0.018 nM, respectively.

`COCCOCCOCCOCC1(c2nccc(COc3ccc4cc3C[C@H](C(=O)O)Oc3ncnc5sc(-c6ccc(F)cc6)c(c35)-c3c(C)c(Cl)c(c(Cl)c3C)O[C@H](CN3CCN(C)CC3)CO4)n2)CC1` [Example 29, (7R,16R)-19,23-dichloro-1-(4-fluorophenyl)-20,22-dimethyl-16-[(4-methylpiperazin-1-yl)methyl]-10-({2-[1-(2,5,8,11-tetraoxadodecan-1-yl)cyclopropyl]pyrimidin-4-yl}methoxy)-7,8,15,16-tetrahydro-18,21-etheno-13,9-(metheno)-6,14,17-trioxa-2-thia-3,5-diazacyclononadeca[1,2,3-cd]indene-7-carboxylic Acid]: the IC50 in experiment [1] turned out to be 0.000942 µM; in experiment [2], 0.000894 µM. Moreover, the Ki amounted to 1.21 nM on GST-MCL-1 (setting [3]) and 0.204 nM on GST-MCL-1 (setting [4]).

For `Cc1c(Cl)c2c(Cl)c(C)c1-c1c(-c3ccc(F)cc3)sc3ncnc(c13)O[C@@H](C(=O)O)Cc1cc(ccc1OCc1ccnc(N3CC4(C3)CC(F)(F)C4)n1)OC[C@@H](CN1CCN(C)CC1)O2` [Example 48, (7R,16R)-19,23-dichloro-10-{[2-(6,6-difluoro-2-azaspiro[3.3]heptan-2-yl)pyrimidin-4-yl]methoxy}-1-(4-fluorophenyl)-20,22-dimethyl-16-[(4-methylpiperazin-1-yl)methyl]-7,8,15,16-tetrahydro-18,21-etheno-9,13-(metheno)-6,14,17-trioxa-2-thia-3,5-diazacyclononadeca[1,2,3-cd]indene-7-carboxylic Acid], the IC50 in experiment [1] was 0.00798 µM; in experiment [2], 0.00275 µM. Besides, the Ki on GST-MCL-1 (setting [3]) came to 5.32 nM; on GST-MCL-1 (setting [4]), 0.644 nM.

Turning to `COCCOCCO[C@]1(c2nccc(COc3ccc4cc3C[C@H](C(=O)O)Oc3ncnc5sc(-c6ccc(F)cc6)c(c35)-c3c(C)c(Cl)c(c(Cl)c3C)O[C@H](CN3CCN(C)CC3)CO4)n2)CC[C@@H](OCC2COCCO2)CC1` (stereo partly drawn) [Example 121, (7R,16R)-19,23-dichloro-10-[(2-{(1r,4r)-4-[(1,4-dioxan-2-yl)methoxy]-1-[2-(2-methoxyethoxy)ethoxy]cyclohexyl}pyrimidin-4-yl)methoxy]-1-(4-fluorophenyl)-20,22-dimethyl-16-[(4-methylpiperazin-1-yl)methyl]-7,8,15,16-tetrahydro-18,21-etheno-9,13-(metheno)-6,14,17-trioxa-2-thia-3,5-diazacyclononadeca[1,2,3-cd]indene-7-carboxylic Acid], the IC50 in experiment [1] was 0.00956 µM; in experiment [2] it was 0.00508 µM. Besides, the results for the Ki at GST-MCL-1 (setting [3]) and at GST-MCL-1 (setting [4]) were 0.231 nM and 0.052 nM, respectively.

For `Cc1c(Cl)c2c(Cl)c(C)c1-c1c(-c3ccc(F)cc3)sc3ncnc(c13)O[C@@H](C(=O)O)Cc1cc(ccc1OCc1ccnc(N3CCC4(CCCNC4=O)CC3)n1)OC[C@@H](CN1CCN(C)CC1)O2` [Example 61, (7R,16R)-19,23-dichloro-1-(4-fluorophenyl)-20,22-dimethyl-16-[(4-methylpiperazin-1-yl)methyl]-10-{[2-(1-oxo-2,9-diazaspiro[5.5]undecan-9-yl)pyrimidin-4-yl]methoxy}-7,8,15,16-tetrahydro-18,21-etheno-13,9-(metheno)-6,14,17-trioxa-2-thia-3,5-diazacyclononadeca[1,2,3-cd]indene-7-carboxylic Acid], the figures for the 50% inhibitory concentration (IC50) in experiment [1] and in experiment [2] were 0.0115 µM and 0.00886 µM, respectively. Besides, the Ki on GST-MCL-1 (setting [3]) came to 4.2 nM; on GST-MCL-1 (setting [4]), 0.364 nM.

For `COCCOCCOC[C@]1(F)CC[C@@H](c2nccc(COc3ccc4cc3C[C@H](C(=O)O)Oc3ncnc5sc(-c6ccc(F)cc6)c(c35)-c3c(C)c(Cl)c(c(Cl)c3C)O[C@H](CN3CCN(C)CC3)CO4)n2)CC1` [Example 96, (7R,16R)-19,23-dichloro-10-({2-[(1s,4s)-4-fluoro-4-{[2-(2-methoxyethoxy)ethoxy]methyl}cyclohexyl]pyrimidin-4-yl}methoxy)-1-(4-fluorophenyl)-20,22-dimethyl-16-[(4-methylpiperazin-1-yl)methyl]-7,8,15,16-tetrahydro-18,21-etheno-13,9-(metheno)-6,14,17-trioxa-2-thia-3,5-diazacyclononadeca[1,2,3-cd]indene-7-carboxylic Acid], the results for the IC50 in experiment [1] and in experiment [2] were 0.000259 µM and 0.000287 µM, respectively. Further, the Ki on GST-MCL-1 (setting [3]) stood at 0.037 nM; on GST-MCL-1 (setting [4]), 0.003 nM.

Turning to `COCCOCCOCCOC[C@]1(F)CC[C@@H](c2nccc(COc3ccc4cc3C[C@H](C(=O)O)Oc3ncnc5sc(-c6ccc(F)cc6)c(c35)-c3c(C)c(Cl)c(c(Cl)c3C)O[C@H](CN3CCN(C)CC3)CO4)n2)CC1` [Example 118, (7R,16R)-19,23-dichloro-1-(4-fluorophenyl)-10-({2-[(1s,4s)-4-fluoro-4-(2,5,8,11-tetraoxadodecan-1-yl)cyclohexyl]pyrimidin-4-yl}methoxy)-20,22-dimethyl-16-[(4-methylpiperazin-1-yl)methyl]-7,8,15,16-tetrahydro-18,21-etheno-13,9-(metheno)-6,14,17-trioxa-2-thia-3,5-diazacyclononadeca[1,2,3-cd]indene-7-carboxylic Acid], the IC50 in experiment [1] is 0.000396 µM; in experiment [2], 0.000247 µM. For the same compound, the Ki at GST-MCL-1 (setting [3]) is 27.3 nM; on GST-MCL-1 (setting [4]), 1.99 nM.
